The numbers were not newly measured in paper PMC8617627, “Novel DYRK1A Inhibitor Rescues Learning and Memory Deficits in a Mouse Model of Down Syndrome” (Pharmaceuticals, 2021), which cites them from elsewhere.

Structures are written as SMILES. Read-outs that look alike come from different tables or passages of the source.

For this data set, the system named is 139-protein kinase panel. The conditions noted are these: no reference given, cited from earlier work.

Take `COc1ccc2c(c1)[nH]c1c(C)nccc12` [harmine]: the GINI-index (comparison value for harmine) is 0.506.
In the case of `CN[C@@H]1C[C@H]2O[C@@](C)([C@@H]1OC)n1c3ccccc3c3c4c(c5c6ccccc6n2c5c31)C(=O)NC4` [staurosporine], the GINI-index (comparison value for staurosporine, with 10 uM ATP) is on record as 0.093.
